One assay deals with TetR/tetO interaction. Description: DNA/protein (tetO/TetR) interaction assay, FortéBio Octet Red. It is filed as binding. Conditions: % association of TetR to tetO; compound 10 μg/mL & tetracycline 10 ng/mL mix in running buffer; normalized to DMSO control. On the procedure:
Biacore Based DNA/Protein (tetO/TetR) Interaction Assay
The FortéBio technology (FortéBio, Inc., Menlo Park, Calif., USA) is a novel label-free methodology for analyzing macromolecular ligand/capture interactions. The Octet system can be used to measure real-time, label-free analysis of biomolecular interactions and provide information on affinity, kinetics and concentration. The instrument is designed to assay up to eight samples in parallel in 2 min from a standard 96-well micro-plate. The detection technology utilized in the Octet is based on Biolayer Interferometry (BLI). BLI relies on the reflective property of white light and is implemented in the Octet via the use of fiber optic-based biosensors. The biosensors are coated with molecules chosen to capture the targeted ligands. The measurements were performed on an Octet Red system equipped with streptavidin biosensor tips (SA). Tips were purchased from FortéBio.
Interaction Studies: FortéBio's Octet Red
Interaction analyses were conducted at 30° C. in running buffer (HBS-P+5 mmol/L MgSO4) unless stated otherwise. (HBS-P buffer: 10 mM Hepes (pH 7.4), 150 mM NaCl, 0.005% (v/v) polysorbate P20, and 5 mmol/L MgSO4; a 10×HBS-P buffer from GE Healthcare was used). Temperature control on the Octet was accomplished by holding the instrument at room temperature so that it could be heated to 30° C. Sensor tips were pre-wet for 10 min in running buffer immediately prior to use, and the micro plates used in the Octet were filled with 200 μl of sample or buffer per well and agitated at 600 rpm. For the experiments commercially available precoated streptavidine tips were used (SA).
Biotinylated oligos were loaded onto the FortéBio SA fibers in HBS-P buffer pH 7.4. Protein binding experiments were run with HBS-P buffer unless stated otherwise. After each run the tip was regenerated (maximum 4 times) with running buffer containing 0.3% w/v sodium dodecylsulfate (SDS).
(§1) Correlation of the synergistic effect of compounds of the invention with tetracyclines on bacterial growth inhibition (% growth relative to DMSO; 4 μg/ml tetracyclines and 10 μg/ml compounds of the invention) and TetR/tetO interaction (% association of TetR to tetO relative to DMSO). Bacterial growth was analysed 16 to 20 hours after inoculation according to CLSI guidelines. OD610 was determined with a Tecan Infinite F200 and normalized to the DMSO control. The interaction of TRIC compounds with the TetR protein and the effect on TetR-tetO operator DNA binding was analyzed with a FortéBio's Octet red and normalized to the DMSO control.
(In general: Biolayer interferometry detects binding as a change in optical thickness at a sensor tip.)

Assay [1] has as its system Antibiotic-resistant staphylococcal, enterococcal, enterobacterial or acinetobacter isolates. In words: Broth micro-dilution assay in clinical patient isolates, compound in combination with tetracyclines. It is filed as cell-based. The settings on record: 4 μg/ml tetracyclines and 10 μg/ml compound; OD610 16 to 20 hours after inoculation, normalized to DMSO control (100%).
Text: Microdilution Assay in Clinical Patient Isolates
Broth Micro-Dilution Assay in Cation-Adjusted Mueller-Hinton (CA-MHB)
The assay protocol is adapted from the Clinical and Laboratory Standards Institute (CLSI) standardized method for broth microdilution. This methodology was used to evaluate the susceptibility of pathogenic clinical isolates towards different antibiotics in combination with a compound of the invention.
Antibiotic-resistant staphylococcal, enterococcal, enterobacterial or acinetobacter isolates were scraped from fresh Orientation Agar plates, suspended in saline solution with the turbidity adjusted to OD610 of 0.1 (corresponds to 0.5 McFarland scale). Subsequently, the cultures were diluted 160× in CA-MHB medium and a volume of 80 μl was dispensed into each well of a 96 well microtiter plate. Plates were covered and incubated for 16 to 20 hours at 35° C. without shaking. Plates were then visually analyzed, scanned and subsequently the OD610 was determined. Average and standard deviations were calculated from at least two wells with the same condition. Values were normalized to the DMSO control (which is 100%).
as §1
A general note: In broth dilution the organism is exposed to a series of concentrations in liquid medium.

Each structure is given as a SMILES string.

Turning to `O=C(NCc1cc(O)ccc1O)c1ccccc1` [Example 1, N-[(2,5-dihydroxyphenyl)methyl]benzamide], the “Association (% rel. to DMSO)” value in the assay on TetR/tetO interaction is reported as 15.84%. For the same compound, the “Growth (% rel. to DMSO)” value in assay [1] turned out to be 55.20%.
Turning to `O=C(NCc1cc(O)ccc1O)c1cc(F)cc(F)c1` [Example 2], the “Association (% rel. to DMSO)” value in the assay on TetR/tetO interaction turned out to be 51.60%. Further, the “Growth (% rel. to DMSO)” value in assay [1] turned out to be 34.40%.
The like results for `O=C(NCCc1cc(O)ccc1O)c1ccccc1` [Example 3] were, in that order, 63.20% and 41.10%.
As to `O=C(c1cc(O)ccc1O)N1CCN(c2ccccc2)CC1` [Example 4], the “Growth (% rel. to DMSO)” value in assay [1] is reported as 63.87%.
As to `O=C(NCc1cc(O)ccc1O)c1ccccc1F` [Example 5], the “Association (% rel. to DMSO)” value in the assay on TetR/tetO interaction came to 30.49%. Moreover, the “Growth (% rel. to DMSO)” value in assay [1] stood at 56.57%.
On to `O=C(NCc1cc(O)ccc1O)c1cccc(F)c1` [Example 6], for which the “Association (% rel. to DMSO)” value in the assay with TetR/tetO interaction came to 25.61%. The “Growth (% rel. to DMSO)” value in assay [1] amounted to 60.43%.
As to `O=C(NCc1cc(O)ccc1O)c1cc(F)ccc1O` [Example 7], the “Association (% rel. to DMSO)” value with TetR/tetO interaction amounted to 26.83%. For the same compound, the “Growth (% rel. to DMSO)” value in assay [1] is on record as 56.50%.
As for `O=C(NCc1cc(O)ccc1O)c1cc(F)ccc1F` [Example 8], the “Association (% rel. to DMSO)” value with TetR/tetO interaction was 42.57%. Besides, the “Growth (% rel. to DMSO)” value in assay [1] came out at 69.68%.
Take `O=C(NCc1cc(O)ccc1O)c1ccc(C(F)(F)F)cc1` [Example 9]: in the assay on TetR/tetO interaction, the “Association (% rel. to DMSO)” value amounted to 16.22%. In addition, the “Growth (% rel. to DMSO)” value in assay [1] stood at 25.91%.
Take `O=C(NCc1cc(O)ccc1O)c1cc(C(F)(F)F)ccc1C(F)(F)F` [Example 10]: in the assay with TetR/tetO interaction, the “Association (% rel. to DMSO)” value was found to be 25.68%. Also, the “Growth (% rel. to DMSO)” value in assay [1] worked out at 47.14%.
The like results for `O=C(NCc1cc(O)ccc1O)c1cc(C(F)(F)F)cc(C(F)(F)F)c1` [Example 11] were, in that order, 19.59% and 26.14%.
For `CCCCC(=O)NCc1ccc(-c2ccccc2)cc1O` [Example 12, N-[(2-hydroxy-4-phenyl-phenyl)-methyl]pentanamide], the “Association (% rel. to DMSO)” value in the assay with TetR/tetO interaction is 1.60%. The “Growth (% rel. to DMSO)” value in assay [1] amounted to 5.76%.
With `CCC(=O)NCc1cc(OC)c(-c2ccccc2)cc1OC` [Example 13], in assay [1], the “Growth (% rel. to DMSO)” value stood at 4.74%.
Take `CCC(=O)Nc1ccccc1Oc1ccc(Cl)cc1` [Example 14, N-[2-(4-chlorophenoxyl)phenyl]propanamide]: the “Association (% rel. to DMSO)” value with TetR/tetO interaction came out at 10.26%. Further, the “Growth (% rel. to DMSO)” value in assay [1] is reported as 18.21%.
On to `CCCCC(=O)Nc1ccccc1Oc1ccc(Cl)cc1` [Example 15], for which the “Association (% rel. to DMSO)” value with TetR/tetO interaction came to 85.19%. Further, the “Growth (% rel. to DMSO)” value in assay [1] worked out at 4.88%.
The like results for `O=C(CCc1ccccc1)Nc1ccccc1Oc1ccc(Cl)cc1` [Example 16] were, in that order, 2.52% and 6.15%.
The like results for `CC(C)C(=O)NCc1cccc(-c2ccccc2)c1O` [Example 17] were, in that order, 70.49% and 8.11%.
In the case of `COc1ccc(OC)c2c1CCC(C(=O)NCC(C)C)C2` (stereo not shown) [Example 18], the “Association (% rel. to DMSO)” value with TetR/tetO interaction amounted to 13.64%. Moreover, the “Growth (% rel. to DMSO)” value in assay [1] came to 103.70%.
Turning to `CC(C)CNC(=O)C1CCc2c(O)ccc(O)c2C1` (stereo not shown) [Example 19], the “Association (% rel. to DMSO)” value in the assay with TetR/tetO interaction stood at 54.02%. The “Growth (% rel. to DMSO)” value in assay [1] is on record as 11.50%.
The like results for `COc1ccc(OC)c2c1CCCC2C(=O)NCC(C)C` (stereo not shown) [Example 20, N-isobutyl-5,8-dimethoxy-tetralin-1-carboxamide] were, in that order, 97.40% and 63.75%.
As to `CC(C)CNC(=O)C1CCc2c(c(O)c3ccccc3c2O)C1` (stereo not shown) [Example 21], the “Growth (% rel. to DMSO)” value in assay [1] is listed as 25.77%.
Turning to `CC(C)CNC(=O)C1CCc2c(O)c3c(c(O)c2C1)C(=O)C=CC3=O` (stereo not shown) [Example 22], the “Association (% rel. to DMSO)” value with TetR/tetO interaction is reported as 108.99%. In assay [1], the “Growth (% rel. to DMSO)” value worked out at 61.29%.
Regarding `O=C(NCc1cc(F)cc(F)c1)C1CCc2c(O)ccc(O)c2C1` (stereo not shown) [Example 23, N-[(3,5-difluorophenyl)methyl]-5,8-dihydroxy-tetralin-2-carboxamide], the “Association (% rel. to DMSO)” value in the assay on TetR/tetO interaction is reported as 22.69%. In addition, in assay [1], the “Growth (% rel. to DMSO)” value is given as 8.15%.
For the compound `O=C(NCc1ccccc1)C1CCc2c(O)ccc(O)c2C1` (stereo not shown) [Example 24], the “Association (% rel. to DMSO)” value in the assay with TetR/tetO interaction is 54.12%. Besides, the “Growth (% rel. to DMSO)” value in assay [1] is listed as 48.15%.
The like results for `O=C(NCc1cc(C(F)(F)F)cc(C(F)(F)F)c1)C1CCc2c(O)ccc(O)c2C1` (stereo not shown) [Example 25] were, in that order, 11.76% and 90.15%.
As for `CN(Cc1ccccc1)C(=O)C1CCc2c(O)ccc(O)c2C1` (stereo not shown) [Example 26], the “Association (% rel. to DMSO)” value in the assay with TetR/tetO interaction was determined as 43.52%. The “Growth (% rel. to DMSO)” value in assay [1] is reported as 55.92%.
The like results for `O=C(NCc1ccc(C(F)(F)F)cc1)C1CCc2c(O)ccc(O)c2C1` (stereo not shown) [Example 27] were, in that order, 23.15% and 58.69%.
Take `O=C(Nc1nnc(-c2ccc(O)cc2)s1)C1CCc2c(O)ccc(O)c2C1` (stereo not shown) [Example 28]: the “Association (% rel. to DMSO)” value in the assay with TetR/tetO interaction was found to be 36.62%. The “Growth (% rel. to DMSO)” value in assay [1] was 46.79%.
For `CC(C)(C)c1ccc(CNC(=O)C2CCc3c(O)ccc(O)c3C2)cc1` (stereo not shown) [Example 29], the “Growth (% rel. to DMSO)” value in assay [1] came out at 23.58%.
As to `O=C(NCc1ccc(-c2ccccc2)cc1)C1CCc2c(O)ccc(O)c2C1` (stereo not shown) [Example 30], in the assay with TetR/tetO interaction, the “Association (% rel. to DMSO)” value was 25.35%. In addition, the “Growth (% rel. to DMSO)” value in assay [1] amounted to 15.00%.
The corresponding values for `O=C(NCc1cc(F)ccc1O)C1CCc2c(O)ccc(O)c2C1` (stereo not shown) [Example 31] are 20.42% and 68.68%.
The corresponding values for `O=C(Nc1ccccc1)C1CCc2c(O)ccc(O)c2C1` (stereo not shown) [Example 32] are 25.35% and 58.27%.
The corresponding values for `O=C(NCCCc1ccccc1)C1CCc2c(O)ccc(O)c2C1` (stereo not shown) [Example 33] are 19.05% and 16.62%.
Regarding `O=C(NCC1CCCCC1)C1CCc2c(O)ccc(O)c2C1` (stereo not shown) [Example 34], the “Association (% rel. to DMSO)” value in the assay with TetR/tetO interaction turned out to be 21.09%. In assay [1], the “Growth (% rel. to DMSO)” value is 13.58%.
The corresponding values for `O=C(NCc1cc(F)ccc1F)C1CCc2c(O)ccc(O)c2C1` (stereo not shown) [Example 35] are 30.61% and 25.80%.
Turning to `O=C(NCc1ccc(F)cc1F)C1CCc2c(O)ccc(O)c2C1` (stereo not shown) [Example 36], the “Association (% rel. to DMSO)” value in the assay with TetR/tetO interaction is 27.89%. For the same compound, the “Growth (% rel. to DMSO)” value in assay [1] is recorded as 33.52%.
The like results for `O=C(Nc1ccccc1Oc1ccc(Cl)cc1)C1CCc2c(O)ccc(O)c2C1` (stereo not shown) [Example 37] were, in that order, 14.18% and 10.42%.

For the origin of these results see patent US9682079B2, “Composition for treatment of pathogens that are resistant to tetracyclines” (BIOVERSYS AG, priority 2013, dated 2017).
